What all share (design): host or cells: CHO cells, stably transfected
Assay [1] concerns the target T1, M5 muscarinic receptor (Homo sapiens, UniProt P08912).
T1 sequence (P08912 1-532): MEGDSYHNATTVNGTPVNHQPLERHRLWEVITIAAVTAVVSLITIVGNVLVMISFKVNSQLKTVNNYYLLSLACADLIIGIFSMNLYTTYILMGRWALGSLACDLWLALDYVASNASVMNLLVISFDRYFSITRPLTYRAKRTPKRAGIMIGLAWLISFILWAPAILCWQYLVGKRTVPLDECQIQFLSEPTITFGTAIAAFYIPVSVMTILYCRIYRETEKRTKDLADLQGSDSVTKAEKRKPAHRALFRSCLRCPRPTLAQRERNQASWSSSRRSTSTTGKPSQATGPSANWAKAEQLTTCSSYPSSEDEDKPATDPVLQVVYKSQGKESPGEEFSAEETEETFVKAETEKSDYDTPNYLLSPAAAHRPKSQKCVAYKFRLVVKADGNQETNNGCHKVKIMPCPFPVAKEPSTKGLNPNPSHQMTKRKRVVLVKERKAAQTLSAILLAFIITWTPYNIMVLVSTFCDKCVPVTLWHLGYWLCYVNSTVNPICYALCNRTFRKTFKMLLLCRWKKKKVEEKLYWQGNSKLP
In words: accumulation of IPX, M5 CHO cells (M5Gq). In kind it is cell-based. Conditions: M5 (↑IPX), preferential response, relative to carbachol; Tables 2, 3, 7.

In assay [2] the target is T2, M4 muscarinic receptor (Homo sapiens, UniProt P08173).
T2 sequence (P08173 1-479): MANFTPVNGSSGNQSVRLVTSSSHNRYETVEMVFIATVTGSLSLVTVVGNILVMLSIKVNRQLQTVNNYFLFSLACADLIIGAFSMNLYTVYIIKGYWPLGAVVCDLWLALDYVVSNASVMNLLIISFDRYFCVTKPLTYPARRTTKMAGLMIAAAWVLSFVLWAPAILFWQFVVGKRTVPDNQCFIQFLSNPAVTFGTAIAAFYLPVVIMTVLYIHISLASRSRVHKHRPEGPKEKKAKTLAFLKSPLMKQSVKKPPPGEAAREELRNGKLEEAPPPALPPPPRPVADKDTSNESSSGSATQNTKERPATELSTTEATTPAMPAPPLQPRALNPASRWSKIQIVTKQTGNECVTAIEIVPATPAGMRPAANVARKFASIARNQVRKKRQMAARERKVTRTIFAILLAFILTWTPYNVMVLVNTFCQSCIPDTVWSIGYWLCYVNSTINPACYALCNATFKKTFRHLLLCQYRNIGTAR
Briefly: [3H]NMS competition binding, M4 CHO membranes. As to conditions: competition with 1 nM [3H]NMS; read-out: Inhibition constants (Ki) as negative logarithms, M4 (converted).

The target in assay [3] is T3, M2 muscarinic receptor (Homo sapiens, UniProt P08172).
T3 sequence (P08172 1-466): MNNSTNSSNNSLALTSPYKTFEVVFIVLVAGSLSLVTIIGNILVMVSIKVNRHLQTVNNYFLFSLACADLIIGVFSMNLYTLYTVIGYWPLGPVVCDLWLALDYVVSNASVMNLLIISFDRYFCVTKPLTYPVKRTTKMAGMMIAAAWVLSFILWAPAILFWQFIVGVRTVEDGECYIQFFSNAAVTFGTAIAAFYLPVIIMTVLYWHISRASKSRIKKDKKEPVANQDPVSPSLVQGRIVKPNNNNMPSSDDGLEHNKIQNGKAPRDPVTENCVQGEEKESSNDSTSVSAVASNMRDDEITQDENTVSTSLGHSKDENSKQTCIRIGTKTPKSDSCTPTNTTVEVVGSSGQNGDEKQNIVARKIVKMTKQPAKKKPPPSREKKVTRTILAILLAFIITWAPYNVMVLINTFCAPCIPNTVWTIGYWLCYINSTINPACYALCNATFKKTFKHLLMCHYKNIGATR
In words: [3H]NMS competition binding, M2 CHO membranes. Conditions: competition with 1 nM [3H]NMS; read-out: Inhibition constants (Ki) as negative logarithms, M2 (converted).

Assay [4] has as its target T1, M5 muscarinic receptor. Briefly: [3H]NMS competition binding, M5 CHO membranes. Conditions: competition with 1 nM [3H]NMS; read-out: Inhibition constants (Ki) as negative logarithms, M5 (converted).
The target of assay [5] is T4, M1 muscarinic receptor (Homo sapiens, UniProt P11229).
T4 sequence (P11229 1-460): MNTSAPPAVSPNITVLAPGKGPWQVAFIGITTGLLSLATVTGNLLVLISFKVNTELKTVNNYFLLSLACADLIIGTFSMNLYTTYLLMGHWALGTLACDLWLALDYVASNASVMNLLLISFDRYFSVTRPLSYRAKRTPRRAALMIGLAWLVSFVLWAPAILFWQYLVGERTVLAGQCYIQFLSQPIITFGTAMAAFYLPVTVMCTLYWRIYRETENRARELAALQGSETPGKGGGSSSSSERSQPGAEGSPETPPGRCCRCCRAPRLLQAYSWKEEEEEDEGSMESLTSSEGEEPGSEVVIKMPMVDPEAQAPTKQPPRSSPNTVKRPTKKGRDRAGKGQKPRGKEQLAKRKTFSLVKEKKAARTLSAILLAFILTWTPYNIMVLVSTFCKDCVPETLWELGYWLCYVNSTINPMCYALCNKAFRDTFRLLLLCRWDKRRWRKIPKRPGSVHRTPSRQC
Briefly: accumulation of inositol phosphates IPX, M1 CHO cells (M1Gq). In kind it is cell-based. As to conditions: M1 (↑IPX), preferential response, relative to carbachol; Tables 2, 3, 7.

Assay [6] concerns the target T3, M2 muscarinic receptor. Briefly: inhibition of forskolin-stimulated cAMP, M2 CHO cells (M2Gi). In kind it is cell-based. As to conditions: M2 (↓cAMP), preferential response, relative to carbachol; Tables 2, 3, 7.
Assay [7] concerns the target T5, M3 muscarinic receptor (Homo sapiens, UniProt P20309). Briefly: [3H]NMS competition binding, M3 CHO membranes. Conditions: competition with 1 nM [3H]NMS; read-out: Inhibition constants (Ki) as negative logarithms, M3 (converted).
In assay [8] the target is T5, M3 muscarinic receptor. Briefly: accumulation of IPX, M3 CHO cells (M3Gq). It counts as cell-based. As to conditions: M3 (↑IPX), preferential response, relative to carbachol; Tables 2, 3, 7.
The target of assay [9] is T4, M1 muscarinic receptor. In words: [3H]NMS competition binding, M1 CHO membranes. Conditions: competition with 1 nM [3H]NMS; read-out: Inhibition constants (Ki) as negative logarithms, M1 (converted).
For assay [10], the target named is T2, M4 muscarinic receptor. In words: inhibition of forskolin-stimulated cAMP, M4 CHO cells (M4Gi). It counts as cell-based. As to conditions: M4 (↓cAMP), preferential response, relative to carbachol; Tables 2, 3, 7.

Structures are written as SMILES.

Consider 1 molecule from patent US11591323B2, “Muscarinic agonists as non-steroidal and non-opioid analgesics and methods of use thereof” (Barry University, priority 2019, dated 2023).

Broadly, the Ki is a measure of affinity in units of concentration, obtained from inhibition or displacement.

T5 sequence (P20309 whole entry): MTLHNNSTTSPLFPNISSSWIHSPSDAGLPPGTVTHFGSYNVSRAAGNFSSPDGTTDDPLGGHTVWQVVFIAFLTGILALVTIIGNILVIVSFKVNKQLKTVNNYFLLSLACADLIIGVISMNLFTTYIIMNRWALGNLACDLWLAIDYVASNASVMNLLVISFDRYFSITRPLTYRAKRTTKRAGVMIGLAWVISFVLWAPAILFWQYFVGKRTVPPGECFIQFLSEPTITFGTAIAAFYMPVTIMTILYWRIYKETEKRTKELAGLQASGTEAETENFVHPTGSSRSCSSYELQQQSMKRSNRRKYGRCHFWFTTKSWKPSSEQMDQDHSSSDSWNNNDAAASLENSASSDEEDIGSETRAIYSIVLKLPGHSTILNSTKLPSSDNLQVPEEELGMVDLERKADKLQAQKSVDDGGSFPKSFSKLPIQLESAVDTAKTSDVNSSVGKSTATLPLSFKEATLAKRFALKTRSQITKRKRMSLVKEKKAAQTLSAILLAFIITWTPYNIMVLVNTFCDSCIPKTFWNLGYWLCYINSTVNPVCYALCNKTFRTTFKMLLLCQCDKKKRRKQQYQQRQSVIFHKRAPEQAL

Take `Cc1csc(CN2CC=CCC2)c1.Cl` [Compound 6E, 1-[(4-methylthiophen-2-yl)methyl]-1,2,3,6-tetrahydropyridin-1-ium chloride]: the RAi in assay [1], in assay [5], in [6], in assay [8] and in assay [10] was 0 each time. Further, the Ki in assay [2] is 31.6 µM; in assay [3], 12.6 µM; in assay [4], 31.6 µM; in [7], 50.1 µM; in assay [9] it was 31.6 µM.
